The source of these data is PubChem BioAssay AID256 (DTP/NCI, 2004).

This assay deals with CD2F1 mice, L1210 leukemia ip, survival T/C. As to the kind of experiment: NCI In Vivo Anticancer Drug Screen. Data for tumor model L1210 Leukemia (intraperitoneal) in CD2F1 (CDF1) mice. Conditions: endpoint: mean survival time, higher = longer survival. A digest of the protocol: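 Activity against a transplanted murine tumor was judged by comparing the compound group with a vehicle group. The outcome in the treated animals was divided by that in the controls.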

Where [1] appears, read: dose: 100.0 mg/kg/injection, schedule: Q01DX001 (ip), vehicle: saline with Tween-80.
Setting [2] is: dose: 200.0 mg/kg/injection, schedule: Q01DX001 (ip), vehicle: saline with Tween-80.
Setting [3] is: dose: 100.0 mg/kg/injection, schedule: Q01DX009 (ip), vehicle: saline with Tween-80.
Setting [4] is: dose: 100.0 mg/kg/injection, schedule: Q04DX003 (ip), vehicle: saline with Tween-80.
Setting [5] is: dose: 200.0 mg/kg/injection, schedule: Q01DX009 (ip), vehicle: saline with Tween-80.
[6] abbreviates: dose: 200.0 mg/kg/injection, schedule: Q04DX003 (ip), vehicle: saline with Tween-80.
Where [7] appears, read: dose: 400.0 mg/kg/injection, schedule: Q01DX009 (ip), vehicle: saline with Tween-80.
Setting [8] is: dose: 400.0 mg/kg/injection, schedule: Q04DX003 (ip), vehicle: saline with Tween-80.
The mark [9] stands for this setting: dose: 12.5 mg/kg/injection, schedule: Q01DX009 (ip), vehicle: saline with Tween-80.
The mark [10] stands for this setting: dose: 25.0 mg/kg/injection, schedule: Q01DX009 (ip), vehicle: saline with Tween-80.
[11] abbreviates: dose: 50.0 mg/kg/injection, schedule: Q01DX009 (ip), vehicle: saline with Tween-80.
Setting [12] is: dose: 12.5 mg/kg/injection, schedule: Q04DX003 (ip), vehicle: saline with Tween-80.
The mark [13] stands for this setting: dose: 25.0 mg/kg/injection, schedule: Q04DX003 (ip), vehicle: saline with Tween-80.
[14] abbreviates: dose: 50.0 mg/kg/injection, schedule: Q04DX003 (ip), vehicle: saline with Tween-80.
The mark [15] stands for this setting: dose: 75.0 mg/kg/injection, schedule: Q01DX001 (ip), vehicle: saline.
Where [16] appears, read: dose: 150.0 mg/kg/injection, schedule: Q01DX001 (ip), vehicle: saline.
Where [17] appears, read: dose: 100.0 mg/kg/injection, schedule: Q01DX001 (ip), vehicle: saline.
Where [18] appears, read: dose: 200.0 mg/kg/injection, schedule: Q01DX001 (ip), vehicle: saline.
[19] abbreviates: dose: 400.0 mg/kg/injection, schedule: Q01DX001 (ip), vehicle: saline.
Setting [20] is: dose: 400.0 mg/kg/injection, schedule: Q01DX001 (ip), vehicle: saline with Tween-80.

Several values for one entry are separate records, joined by “and”; a condition that tells them apart may be missing. Equal entries are not always repeated. Toxic doses and inconclusive results are not listed.

As to `CCC(CNCC(=O)O)(C(=O)O)C(=O)O`, the T/C reads like this: (dose: 12.5 mg/kg/injection, schedule: Q04DX002 (ip), vehicle: saline with Tween-80) 104 % of control; (dose: 25.0 mg/kg/injection, schedule: Q04DX002 (ip), vehicle: saline with Tween-80) 93 % of control; (dose: 50.0 mg/kg/injection, schedule: Q04DX002 (ip), vehicle: saline with Tween-80) 111 % of control.

As to `COc1ccc(CC(=O)NCCc2ccc3c(c2)OCO3)cc1`, the T/C was 91 % of control under setting [1] and 87 % of control under setting [2].

As to `c1ccc(-c2nc3c(c(-c4ccccc4)n2)CCO3)cc1`, the T/C reads like this: under setting [3], 95 % of control; under setting [4], 98 % of control; under setting [5], 93 % of control; under setting [6], 100 % of control; under setting [7], 95 % of control; under setting [8], 90 % of control.

Consider `COc1cc2c(cc1OC)C1c3cc(OC)c(OC)cc3CCN1CC2`, for which the T/C was 103 % of control (dose: 12.5 mg/kg/injection, schedule: Q01DX009 (ip), vehicle: other) and 94 % of control (dose: 25.0 mg/kg/injection, schedule: Q01DX009 (ip), vehicle: other).

In the case of `CC12CS(=O)(=O)CC1O2` (stereo not given), the T/C under setting [4] was 101 % of control, the T/C under setting [6] is 96 % of control and the T/C under setting [8] was 101 % of control.

Consider `N#CC(NC(=O)NCCO)c1ccccc1` (stereo not given), for which the T/C is 94 % of control under setting [3], 96 % of control under setting [5] and 92 % of control under setting [7].

Turning to `O=S=NNc1ccccc1`, the T/C runs as follows: under setting [9], 108 % of control; under setting [10], 102 % of control; under setting [11], 88 % of control and 90 % of control; under setting [4], 95 % of control; under setting [6], 89 % of control.

For the molecule `CC1=C/C(=C/c2ccccc2)CC(C)(C)C1` (tested in a mixture with another compound), the T/C was 105 % of control under setting [10], 103 % of control under setting [11], 95 % of control under setting [3] and 100 % of control under setting [4].

Turning to `COC(=O)c1[nH]nc(-c2ccc(N)cc2)c1N`, the T/C (dose: 3.13 mg/kg/injection, schedule: Q01DX005 (ip), vehicle: other) was 114 % of control; the T/C (dose: 6.25 mg/kg/injection, schedule: Q01DX005 (ip), vehicle: other) is 93 % of control; the T/C (dose: 12.5 mg/kg/injection, schedule: Q01DX005 (ip), vehicle: other) is 107 % of control; the T/C (dose: 25.0 mg/kg/injection, schedule: Q01DX005 (ip), vehicle: other) was 93 % of control; the T/C (dose: 50.0 mg/kg/injection, schedule: Q01DX005 (ip), vehicle: other) is 93 % of control.

Consider `O=C1CC2C3=C(CCC3)CCN2C2=C1CC(OC(=O)c1ccccc1)CC2` (stereo not given), for which the T/C runs as follows: under setting [12], 90 % of control; under setting [13], 88 % of control; under setting [14], 94 % of control.

For the molecule `Cc1cc(Cl)nc(N)n1`, the T/C was 90 % of control (dose: 100.0 mg/kg/injection, schedule: Q04DX002 (ip), vehicle: Klucel (hydroxypropylcellulose) (HPC)) and 86 % of control (dose: 200.0 mg/kg/injection, schedule: Q04DX002 (ip), vehicle: Klucel (hydroxypropylcellulose) (HPC)).

With `CC1(C2CCN(Cc3ccccc3)CC2)OCCO1`, the T/C runs as follows: under setting [15], 101 % of control; under setting [16], 97 % of control.

Regarding `CN(C)Cc1ccc(C(C)(C)C)cc1Br`, the T/C is, setting by setting: (dose: 12.5 mg/kg/injection, schedule: Q01DX009 (ip), vehicle: water) 98 % of control; (dose: 25.0 mg/kg/injection, schedule: Q01DX009 (ip), vehicle: water) 95 % of control; (dose: 50.0 mg/kg/injection, schedule: Q01DX009 (ip), vehicle: water) 98 % of control; (dose: 100.0 mg/kg/injection, schedule: Q01DX009 (ip), vehicle: water) 98 % of control; (dose: 200.0 mg/kg/injection, schedule: Q01DX009 (ip), vehicle: water) 104 % of control.

In the case of `O=C(c1ccccc1)C(Br)C(C(=O)O)c1ccccc1` (stereo not given), the T/C reads like this: under setting [4], 101 % of control; under setting [6], 95 % of control; under setting [8], 95 % of control.

For `CC1(O)CS(=O)(=O)CC1O` (stereo not given), the T/C under setting [17] was 105 % of control, the T/C under setting [18] was 103 % of control and the T/C under setting [19] was 101 % of control.

Consider `O=c1c(O)c(-c2ccc(O)c(O)c2)oc2cc(O)cc(O)c12`, for which the T/C was 100 % of control under setting [17]; 100 % of control under setting [18]; 90 % of control under setting [5]; 100 % of control under setting [19]; 96 % of control under setting [7]; 87 % of control (dose: 800.0 mg/kg/injection, schedule: Q01DX009 (ip), vehicle: saline with Tween-80).

On to `CN(C)CCC(=O)C(c1ccccc1)c1ccccc1`, for which the T/C by setting is: under setting [15], 97 % of control; under setting [16], 101 % of control.

On to `CCOCCNCc1ccc(Cl)cc1Cl`, for which the T/C was 91 % of control under setting [4] and 94 % of control under setting [6].

For `NC(=O)c1cc2ccncc2c2ccccc12`, the T/C by setting is: under setting [4], 97 % of control; under setting [6], 97 % of control; under setting [8], 106 % of control.

As to `O=C(O)C(=O)O.[NH-]CC1CCCC[N-]1.[Pt+2]` (stereo not given), the T/C by setting is: under setting [12], 164 % of control; under setting [13], 201 % of control; under setting [14], 238 % of control.

As for `Cc1ccc(S(=O)(=O)NC(=O)OC23COCN2COC3)cc1`, the T/C reads like this: under setting [9], 96 % of control and 101 % of control; under setting [10], 96 % of control and 102 % of control; under setting [11], 97 % of control and 101 % of control; under setting [3], 117 % of control and 102 % of control; under setting [5], 113 % of control and 108 % of control; under setting [7], 113 % of control and 105 % of control.

`CCC(=O)C(C)(C)c1ccccc1` (tested in a mixture with another compound): the T/C is, setting by setting: under setting [1], 110 % of control; under setting [2], 98 % of control.

`CC(C)[S-].CC(C)[S-].[Pt+2].c1ccc([PH+](c2ccccc2)c2ccccc2)cc1.c1ccc([PH+](c2ccccc2)c2ccccc2)cc1`: the T/C is 96 % of control (dose: 3.13 mg/kg/injection, schedule: Q04DX003 (sc), vehicle: distilled water + Tween-80); 100 % of control (dose: 6.25 mg/kg/injection, schedule: Q04DX003 (sc), vehicle: distilled water + Tween-80); 92 % of control (dose: 12.5 mg/kg/injection, schedule: Q04DX003 (sc), vehicle: distilled water + Tween-80); 87 % of control (dose: 50.0 mg/kg/injection, schedule: Q04DX003 (sc), vehicle: distilled water + Tween-80); 89 % of control (dose: 200.0 mg/kg/injection, schedule: Q04DX003 (sc), vehicle: distilled water + Tween-80).

Consider `Nc1ccc(C(=O)Nc2cccc(S(=O)(=O)F)c2)cc1`, for which the T/C under setting [1] is 101 % of control, the T/C under setting [2] is 98 % of control and the T/C under setting [20] was 93 % of control.

`O=C(O)C1=NN(c2cccc([N+](=O)[O-])c2)C(=O)C1`: the T/C was 114 % of control under setting [3]; 98 % of control under setting [4]; 101 % of control under setting [5]; 104 % of control under setting [6]; 95 % of control under setting [7]; 102 % of control under setting [8].

On to `Cc1cc[n+](CCc2ccccc2)cc1`, for which the T/C reads like this: under setting [10], 112 % of control; (dose: 25.0 mg/kg/injection, schedule: Q04DX003 (ip), vehicle: saline) 95 % of control; under setting [11], 98 % of control; (dose: 50.0 mg/kg/injection, schedule: Q04DX003 (ip), vehicle: saline) 96 % of control; (dose: 100.0 mg/kg/injection, schedule: Q04DX003 (ip), vehicle: saline) 94 % of control.

Regarding `O=C(O)CCc1nc(-c2cccc(Br)c2)n[nH]1`, the T/C by setting is: (dose: 100.0 mg/kg/injection, schedule: Q04DX002 (ip), vehicle: saline with Tween-80) 96 % of control; (dose: 200.0 mg/kg/injection, schedule: Q04DX002 (ip), vehicle: saline with Tween-80) 107 % of control; (dose: 400.0 mg/kg/injection, schedule: Q04DX002 (ip), vehicle: saline with Tween-80) 103 % of control.

In the case of `CC1=C/C(=N/Nc2ccc([N+](=O)[O-])cc2[N+](=O)[O-])CC(C)(C)C1`, the T/C by setting is: under setting [1], 92 % of control; under setting [2], 90 % of control; under setting [20], 95 % of control.
